PMC11104609, “Discovery of allosteric regulators with clinical potential to stabilize alpha-L-iduronidase in mucopolysaccharidosis type I” (PLOS ONE, 2024)

Target: T1, IDUA (Homo sapiens, UniProt P35475)
T1 sequence (P35475 28-653): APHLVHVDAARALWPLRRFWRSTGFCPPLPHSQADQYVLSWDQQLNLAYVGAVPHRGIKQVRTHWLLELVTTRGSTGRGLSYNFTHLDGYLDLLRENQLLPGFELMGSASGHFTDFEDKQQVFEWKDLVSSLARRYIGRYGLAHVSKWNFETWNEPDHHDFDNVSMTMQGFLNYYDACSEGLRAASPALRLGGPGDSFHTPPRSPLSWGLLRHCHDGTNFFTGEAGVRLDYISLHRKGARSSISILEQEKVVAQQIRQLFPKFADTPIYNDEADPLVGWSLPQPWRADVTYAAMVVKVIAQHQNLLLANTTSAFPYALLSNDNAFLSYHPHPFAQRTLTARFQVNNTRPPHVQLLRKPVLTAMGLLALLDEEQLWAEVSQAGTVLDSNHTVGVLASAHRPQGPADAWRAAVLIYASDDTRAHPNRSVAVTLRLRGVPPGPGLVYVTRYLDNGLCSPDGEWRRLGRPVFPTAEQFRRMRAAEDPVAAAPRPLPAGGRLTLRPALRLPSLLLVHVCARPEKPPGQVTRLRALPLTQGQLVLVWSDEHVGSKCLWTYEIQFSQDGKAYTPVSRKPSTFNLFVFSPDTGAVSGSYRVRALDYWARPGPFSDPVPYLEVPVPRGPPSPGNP
Experiment: IDUA enzymatic activity in patient-derived fibroblasts after rhIDUA with or without compound (4-MUI substrate)
Assay type: cell-based
Design: Institute of Biotechnology and Biomedicine, Autonomous University of Barcelona (UAB), Bellaterra, Spain
Procedure: Fibroblasts derived from Hurler (GM00798) and Hurler/Scheie patients (GM02845, GM00512, GM01898, GM00963) were purchased from Coriell (Camden, NJ). Fibroblasts were cultured in Dulbecco’s modified Eagle’s medium (DMEM, Gibco) supplemented with 10% inactivated fetal bovine serum (FBS, Gibco) and 1% penicillin-streptomycin (Thermo Fisher Scientific, Waltham, MA, USA) (growth medium) at 37 °C under 5% CO2. The effect of the protein and/or compound in enhancing IDUA enzymatic activity was evaluated as follows: The specified patient-derived fibroblasts were seeded at 4x10^4 cells per well in 12-well cell culture plates in growth medium. Subsequently, cells were incubated with indicated dose of rhIDUA (obtained from the Institute of Biotechnology and Biomedicine in the UAB, Bellaterra, Spain) in the absence or presence of the compound #18 (GT-01803) for the specified incubation times at 50 μM. After incubation, cells were washed with PBS and detached using Trypsin-EDTA solution (Sigma Aldrich, St. Louis, MO, USA) to prepare cell pellets. The pellets were stored at -80 °C until activity assays were performed. IDUA activity in cell lysates was measured using 4-methylumbelliferyl IDUA substrate (4-MUI, Glycosynth Ltd., #44076, Warrington, UK). Briefly, lysates were resuspended in 120 μL of 0.9% NaCl containing 0.01% Triton X-100 lysis buffer to promote membrane disruption. Next, the cell suspension was sonicated and centrifuged to pellet insoluble materials. Then, 25 μL of lysates were mixed with 25 μL of 200 μM 4-MUI substrate solution in 0.4 M sodium formate, pH 3.5, 0.2% Triton X-100 buffer and incubated for 60 mins at 37 °C. The reaction was stopped by adding 200 μL of 0.5 M Glycine/0.3 M NaOH buffer, pH 10. The liberated 4-methylumbelliferone (4-MU) was measured on a Glomax® Discover microplate reader with excitation at 340 nm and emission at 460 nm. Protein quantification was determined using Pierce BCA Protein Assay Kit (Thermo Fisher Scientific, Waltham, MA, USA). Measurements were interpolated in a 4-MU standard curve and normalised by protein quantity.
For Fig 6A, rhIDUA concentrations of 0.187, 0.375 and 1.25 nM were tested in GM02845 fibroblasts over a 96-hour period, both in the presence and absence of the compound #18 (GT-01803) at 50 μM. In Fig 6B, 1.25 nM of rhIDUA was evaluated in GM02845, GM00798, GM00512, and GM00963 fibroblasts for 96h, with and without the compound #18 (GT-01803) at 50 μM. In Fig 6C, a concentration of 1.25 nM of the protein was applied to fibroblasts for 4, 8, 24 and 96h, with and without the compound #18 (GT-01803) at 50 μM.

[1] = rhIDUA 1.25 nM + GT-01803 50 μM, GM02845 fibroblasts (Fig 6C)

- IDUA cell activity compared with rhIDUA alone (co-administration of rhIDUA (0.187, 0.375, 1.25 nM) with 50 μM GT-01803, GM02845, 96 h, p ≤ 0.0001): marked dose-dependent increase
- mean IDUA cell activity at 96h [1]: 104.3 nmol/h/mg
- mean difference in IDUA cell activity at 96h, rhIDUA + compound vs rhIDUA alone [1]: 28.65 ± 3.106 nmol/h/mg
Compound: CCN(CC(=O)Nc1c(Cl)cccc1Cl)Cc1nc2ccsc2c(=O)[nH]1 [GT-01803]
